# Measurements from patent US20230021483A1, “[…] […] METHOD AND CLASSIFICATION OF PHARMACEUTICAL COMPONENTS BY USING TRANSCRIPTOMES” (National Institutes of Biomedical Innovation, Health and …, priority 2016, published 2023).
# Test system: preferentially upregulated genes in LV, SP, LN
# Test: Z-score-based differential gene expression analysis (adjuvant group- or adjuvant-associated genes, 40 module mapping, TargetMine annotation)
# Format: in vivo, C57BL/6 mice
# Conditions: for Pml 1456103_at (Group G1, Modules 20) / Rnf213 1455500_at (Group G1, Modules 20) / Rsad2 1436058_at (Group G1, Modules 20) / Shisa5 1423986_a_at (Group G1, Modules 20) / Shisa5 1437503_a_at (Group G1, Modules 20) / Stat1 1450033_a_at (Group G1, Modules 20) / Stat1 1450034_at (Group G1, Modules 20) / Tdrd7 1426716_at (Group G1, Modules 20) / Tor1aip2 1418115_s_at (Group G1, Modules 20) / Tor1aip2 1418116_at (Group G1, Modules 20) / Tor1aip2 1435526_at (Group G1, Modules 20) / Trim12a 1437432_a_at (Group G1, Modules 20) / Uba7 1426970_a_at (Group G1, Modules 20) / Adar 1425405_a_at (Group G1, Modules 20) / Adar 1434268_at (Group G1, Modules 20) / Ddx58 1436562_at (Group G1, Modules 20) / Ddx58 1456890_at (Group G1, Modules 20) / Eif2ak2 1422005_at (Group G1, Modules 20) / G3bp2 1421323_a_at (Group G1, Modules 20) / Gm9706///Isg15 1431591_s_at (Group G1, Modules 20) / H2-T10///H2-T22///H2-T9 1449875_s_at (Group G1, Modules 20) / Ifih1 1426276_at (Group G1, Modules 20) / Ifit1 1450783_at (Group G1, Modules 20) / Ifit3 1449025_at (Group G1, Modules 20) / Irf7 1417244_a_at (Group G1, Modules 20) / Irgm1 1418825_at (Group G1, Modules 20) / Mndal 1426906_at (Group G1, Modules 20) / Pml 1448757_at (Group G1, Modules 20): ID, LV
# Method in brief: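 Per-sample fold-change values converted to gene-wise z-scores within each organ's data set, then triplicate z-scores summed per adjuvant. Genes with summed score >3 taken as preferentially expressed; gene groups defined by combined per-adjuvant z-score thresholds (z>1 to z>3) specific to each organ.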
structure (smiles),measurement,setting,value
"Nc1nc2c(ncn2[C@@H]2O[C@@H]3COP(=O)(O)O[C@H]4[C@@H](O)[C@H](n5cnc6c(N)ncnc65)O[C@@H]4COP(=O)(O)O[C@@H]2[C@@H]3O)c(=O)[nH]1 [cGAMP, Cyclic [G(2′,5′)pA(3′,5′)p]]","Pml 1456103_at (Group G1, Modules 20)",sample x1,1.62
same,"Rnf213 1455500_at (Group G1, Modules 20)",sample x1,2.58
same,"Rsad2 1436058_at (Group G1, Modules 20)",sample x1,2.08
same,"Shisa5 1423986_a_at (Group G1, Modules 20)",sample x1,1.7
same,"Shisa5 1437503_a_at (Group G1, Modules 20)",sample x1,1.57
same,"Stat1 1450033_a_at (Group G1, Modules 20)",sample x1,3.11
same,"Stat1 1450034_at (Group G1, Modules 20)",sample x1,2.46
same,"Tdrd7 1426716_at (Group G1, Modules 20)",sample x1,2.18
same,"Tor1aip2 1418115_s_at (Group G1, Modules 20)",sample x1,2.9
same,"Tor1aip2 1418116_at (Group G1, Modules 20)",sample x1,2.41
same,"Tor1aip2 1435526_at (Group G1, Modules 20)",sample x1,2.32
same,"Trim12a 1437432_a_at (Group G1, Modules 20)",sample x1,2.07
same,"Uba7 1426970_a_at (Group G1, Modules 20)",sample x1,2.06
same,"Adar 1425405_a_at (Group G1, Modules 20)",sample x2,2.38
same,"Adar 1434268_at (Group G1, Modules 20)",sample x2,1.71
same,"Ddx58 1436562_at (Group G1, Modules 20)",sample x2,2.13
same,"Ddx58 1456890_at (Group G1, Modules 20)",sample x2,2.28
same,"Eif2ak2 1422005_at (Group G1, Modules 20)",sample x2,2.21
same,"G3bp2 1421323_a_at (Group G1, Modules 20)",sample x2,2.6
same,"Gm9706///Isg15 1431591_s_at (Group G1, Modules 20)",sample x2,1.62
same,"H2-T10///H2-T22///H2-T9 1449875_s_at (Group G1, Modules 20)",sample x2,1.8
same,"Ifih1 1426276_at (Group G1, Modules 20)",sample x2,1.62
same,"Ifit1 1450783_at (Group G1, Modules 20)",sample x2,2.63
same,"Ifit3 1449025_at (Group G1, Modules 20)",sample x2,1.95
same,"Irf7 1417244_a_at (Group G1, Modules 20)",sample x2,1.62
same,"Irgm1 1418825_at (Group G1, Modules 20)",sample x2,2.09
same,"Mndal 1426906_at (Group G1, Modules 20)",sample x2,2.11
same,"Pml 1448757_at (Group G1, Modules 20)",sample x2,2.02
same,"Pml 1456103_at (Group G1, Modules 20)",sample x2,1.48
same,"Rnf213 1455500_at (Group G1, Modules 20)",sample x2,2.34
same,"Rsad2 1436058_at (Group G1, Modules 20)",sample x2,1.89
same,"Shisa5 1423986_a_at (Group G1, Modules 20)",sample x2,1.43
same,"Shisa5 1437503_a_at (Group G1, Modules 20)",sample x2,1.63
same,"Stat1 1450033_a_at (Group G1, Modules 20)",sample x2,2.52
same,"Stat1 1450034_at (Group G1, Modules 20)",sample x2,1.97
same,"Tdrd7 1426716_at (Group G1, Modules 20)",sample x2,2.34
same,"Tor1aip2 1418115_s_at (Group G1, Modules 20)",sample x2,2.68
same,"Tor1aip2 1418116_at (Group G1, Modules 20)",sample x2,2.58
same,"Tor1aip2 1435526_at (Group G1, Modules 20)",sample x2,2.28
same,"Trim12a 1437432_a_at (Group G1, Modules 20)",sample x2,1.46
same,"Uba7 1426970_a_at (Group G1, Modules 20)",sample x2,1.28
same,"Adar 1425405_a_at (Group G1, Modules 20)",sample x3,2.37
same,"Adar 1434268_at (Group G1, Modules 20)",sample x3,1.8
same,"Ddx58 1436562_at (Group G1, Modules 20)",sample x3,2.6
same,"Ddx58 1456890_at (Group G1, Modules 20)",sample x3,2.38
same,"Eif2ak2 1422005_at (Group G1, Modules 20)",sample x3,2.73
same,"G3bp2 1421323_a_at (Group G1, Modules 20)",sample x3,2.43
same,"Gm9706///Isg15 1431591_s_at (Group G1, Modules 20)",sample x3,1.73
same,"H2-T10///H2-T22///H2-T9 1449875_s_at (Group G1, Modules 20)",sample x3,2.45
same,"Ifih1 1426276_at (Group G1, Modules 20)",sample x3,1.66
same,"Ifit1 1450783_at (Group G1, Modules 20)",sample x3,2.63
same,"Ifit3 1449025_at (Group G1, Modules 20)",sample x3,2.06
same,"Irf7 1417244_a_at (Group G1, Modules 20)",sample x3,1.62
same,"Irgm1 1418825_at (Group G1, Modules 20)",sample x3,2.14
same,"Mndal 1426906_at (Group G1, Modules 20)",sample x3,2.19
same,"Pml 1448757_at (Group G1, Modules 20)",sample x3,2.49
same,"Pml 1456103_at (Group G1, Modules 20)",sample x3,1.62
same,"Rnf213 1455500_at (Group G1, Modules 20)",sample x3,2.18
same,"Rsad2 1436058_at (Group G1, Modules 20)",sample x3,1.75
same,"Shisa5 1423986_a_at (Group G1, Modules 20)",sample x3,2.36
same,"Shisa5 1437503_a_at (Group G1, Modules 20)",sample x3,2.09
same,"Stat1 1450033_a_at (Group G1, Modules 20)",sample x3,2.85
same,"Stat1 1450034_at (Group G1, Modules 20)",sample x3,2.26
same,"Tdrd7 1426716_at (Group G1, Modules 20)",sample x3,2.5
same,"Tor1aip2 1418115_s_at (Group G1, Modules 20)",sample x3,2.71
same,"Tor1aip2 1418116_at (Group G1, Modules 20)",sample x3,2.68
same,"Tor1aip2 1435526_at (Group G1, Modules 20)",sample x3,2.32
same,"Trim12a 1437432_a_at (Group G1, Modules 20)",sample x3,1.61
same,"Uba7 1426970_a_at (Group G1, Modules 20)",sample x3,1.91
same,adjuvant group-associated biological features,"z-score selected genes, TargetMine and IPA upstream cytokine analyses",strongly associated with type I and type II interferon responses
